Values of other authors as cited in patent publication US20110313191A1, “Preparation of Pharmaceutical Salts of 3-0-(3',3'-Dimethylsuccinyl) Betulinic Acid” (Myrexis, Inc., priority 2005, published 2011).

System: HIV
Settings: comparison with regioisomer 3-O-2′,2′-DSB; literature statement

C=C(C)[C@@H]1CC[C@]2(C(=O)O)CC[C@]3(C)[C@H](CC[C@@H]4[C@@]5(C)CC[C@H](OC(=O)CC(C)(C)C(=O)O)C(C)(C)[C@@H]5CC[C@]43C)[C@@H]12 [3-O-3′,3′-DSB, 3-O-(3′,3′-dimethylsuccinyl)betulinic acid]
EC50 of 3-O-3′,3′-DSB relative to that of 3-O-2′,2′-DSB: about four orders of magnitude lower
